Laboratory results published in ChEMBL document CHEMBL3714760, “Substituted pyrrolo[2,3b]pyrazines and methods for treatment of raf protein kinase-mediated indications” (2012).

Legend:
[1] = target: Proto-oncogene tyrosine-protein kinase Src (Homo sapiens, UniProt P12931); assay: Inhibition of Src (unknown origin) expressed in Escherichia coli using biotin-(E4Y)3 substrate
[2] = target: Vascular endothelial growth factor receptor 2 (Homo sapiens, UniProt P35968); assay: Inhibition of KDR (unknown origin)
Sequence of Vascular endothelial growth factor receptor 2 (P35968 whole entry): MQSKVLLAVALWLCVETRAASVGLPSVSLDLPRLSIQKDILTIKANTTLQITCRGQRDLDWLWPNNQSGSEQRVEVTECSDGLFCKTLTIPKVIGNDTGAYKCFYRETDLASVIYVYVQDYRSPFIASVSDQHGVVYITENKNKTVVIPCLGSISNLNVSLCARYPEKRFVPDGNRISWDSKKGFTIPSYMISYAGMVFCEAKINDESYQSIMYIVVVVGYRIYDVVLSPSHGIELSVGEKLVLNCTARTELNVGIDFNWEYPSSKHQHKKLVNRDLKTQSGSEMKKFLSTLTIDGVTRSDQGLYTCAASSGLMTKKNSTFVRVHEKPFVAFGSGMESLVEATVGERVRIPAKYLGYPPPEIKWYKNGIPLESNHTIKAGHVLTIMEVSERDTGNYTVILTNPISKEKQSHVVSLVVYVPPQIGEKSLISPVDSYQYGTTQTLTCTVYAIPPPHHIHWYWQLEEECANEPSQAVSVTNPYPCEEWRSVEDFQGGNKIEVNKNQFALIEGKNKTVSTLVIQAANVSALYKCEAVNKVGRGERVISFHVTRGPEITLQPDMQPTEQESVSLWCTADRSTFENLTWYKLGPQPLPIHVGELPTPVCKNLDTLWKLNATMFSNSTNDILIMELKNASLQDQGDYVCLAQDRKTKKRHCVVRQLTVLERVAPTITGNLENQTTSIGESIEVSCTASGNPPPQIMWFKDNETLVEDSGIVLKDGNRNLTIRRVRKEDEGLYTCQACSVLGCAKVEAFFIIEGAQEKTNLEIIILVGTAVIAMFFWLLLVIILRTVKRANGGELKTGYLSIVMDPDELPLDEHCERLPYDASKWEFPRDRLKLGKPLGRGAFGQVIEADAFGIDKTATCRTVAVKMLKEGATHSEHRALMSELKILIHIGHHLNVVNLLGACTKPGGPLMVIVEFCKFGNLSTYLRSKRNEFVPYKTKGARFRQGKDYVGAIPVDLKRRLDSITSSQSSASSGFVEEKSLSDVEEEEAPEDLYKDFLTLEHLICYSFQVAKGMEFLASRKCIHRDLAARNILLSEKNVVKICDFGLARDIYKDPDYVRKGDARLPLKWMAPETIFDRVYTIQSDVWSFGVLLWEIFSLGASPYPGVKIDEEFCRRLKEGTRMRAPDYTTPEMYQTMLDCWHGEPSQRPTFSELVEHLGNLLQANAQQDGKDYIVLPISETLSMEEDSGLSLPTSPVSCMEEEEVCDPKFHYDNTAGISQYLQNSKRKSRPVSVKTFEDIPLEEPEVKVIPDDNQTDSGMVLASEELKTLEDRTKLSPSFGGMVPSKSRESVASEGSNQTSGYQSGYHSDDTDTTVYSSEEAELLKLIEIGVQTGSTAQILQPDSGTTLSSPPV

[3] = target: Serine/threonine-protein kinase B-raf (Homo sapiens, UniProt P15056); assay: Inhibition of N-terminal GST-tagged human recombinant B-Raf (416 to end residues) using biotin-MEKl substrate incubated for 1 hr
Sequence of Serine/threonine-protein kinase B-raf (P15056 whole entry): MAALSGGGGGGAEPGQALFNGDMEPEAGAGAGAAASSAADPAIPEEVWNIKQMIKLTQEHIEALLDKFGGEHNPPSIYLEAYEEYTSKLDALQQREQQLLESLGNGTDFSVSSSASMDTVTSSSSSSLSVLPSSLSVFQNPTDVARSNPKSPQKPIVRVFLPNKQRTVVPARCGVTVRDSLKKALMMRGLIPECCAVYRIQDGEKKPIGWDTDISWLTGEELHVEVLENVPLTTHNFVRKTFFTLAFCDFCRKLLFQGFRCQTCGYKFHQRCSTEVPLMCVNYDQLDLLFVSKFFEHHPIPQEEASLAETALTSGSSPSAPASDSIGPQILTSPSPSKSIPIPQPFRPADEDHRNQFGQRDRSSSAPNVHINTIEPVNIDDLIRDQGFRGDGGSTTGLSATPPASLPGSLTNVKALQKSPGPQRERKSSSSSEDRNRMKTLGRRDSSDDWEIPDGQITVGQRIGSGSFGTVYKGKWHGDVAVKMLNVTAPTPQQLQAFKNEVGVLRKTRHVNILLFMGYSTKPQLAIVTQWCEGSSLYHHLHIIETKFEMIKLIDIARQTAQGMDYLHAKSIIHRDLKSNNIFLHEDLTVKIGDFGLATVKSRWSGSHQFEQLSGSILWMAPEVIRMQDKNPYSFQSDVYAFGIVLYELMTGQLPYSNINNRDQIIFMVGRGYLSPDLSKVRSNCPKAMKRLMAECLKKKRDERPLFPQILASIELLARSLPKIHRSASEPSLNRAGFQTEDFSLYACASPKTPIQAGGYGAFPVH

[4] = target: T1, Serine/threonine-protein kinase A-Raf (Homo sapiens, UniProt P10398); assay: Inhibition of A-raf (unknown origin)
T1 sequence (P10398 whole entry): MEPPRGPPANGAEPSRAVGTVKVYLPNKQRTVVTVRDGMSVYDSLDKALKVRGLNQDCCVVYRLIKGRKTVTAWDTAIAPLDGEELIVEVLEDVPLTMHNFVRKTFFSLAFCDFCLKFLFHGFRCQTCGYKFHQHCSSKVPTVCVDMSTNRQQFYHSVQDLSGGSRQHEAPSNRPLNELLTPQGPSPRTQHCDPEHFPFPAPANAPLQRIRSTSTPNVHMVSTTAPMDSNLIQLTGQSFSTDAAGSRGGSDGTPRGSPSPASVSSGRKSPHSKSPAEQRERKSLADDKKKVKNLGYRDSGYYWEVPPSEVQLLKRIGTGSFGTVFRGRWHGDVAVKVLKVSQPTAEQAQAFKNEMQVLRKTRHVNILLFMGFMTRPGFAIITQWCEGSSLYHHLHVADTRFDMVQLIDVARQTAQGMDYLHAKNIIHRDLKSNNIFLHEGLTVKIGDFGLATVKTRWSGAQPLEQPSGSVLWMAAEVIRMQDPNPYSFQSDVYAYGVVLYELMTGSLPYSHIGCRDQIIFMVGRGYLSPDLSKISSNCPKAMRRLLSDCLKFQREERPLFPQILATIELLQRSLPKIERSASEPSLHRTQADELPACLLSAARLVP

[5] = target: RAF proto-oncogene serine/threonine-protein kinase (Homo sapiens, UniProt P04049); assay: Inhibition of human C-raf using biotin-MEKl substrate incubated for 1 hr
Sequence of RAF proto-oncogene serine/threonine-protein kinase (P04049 whole entry): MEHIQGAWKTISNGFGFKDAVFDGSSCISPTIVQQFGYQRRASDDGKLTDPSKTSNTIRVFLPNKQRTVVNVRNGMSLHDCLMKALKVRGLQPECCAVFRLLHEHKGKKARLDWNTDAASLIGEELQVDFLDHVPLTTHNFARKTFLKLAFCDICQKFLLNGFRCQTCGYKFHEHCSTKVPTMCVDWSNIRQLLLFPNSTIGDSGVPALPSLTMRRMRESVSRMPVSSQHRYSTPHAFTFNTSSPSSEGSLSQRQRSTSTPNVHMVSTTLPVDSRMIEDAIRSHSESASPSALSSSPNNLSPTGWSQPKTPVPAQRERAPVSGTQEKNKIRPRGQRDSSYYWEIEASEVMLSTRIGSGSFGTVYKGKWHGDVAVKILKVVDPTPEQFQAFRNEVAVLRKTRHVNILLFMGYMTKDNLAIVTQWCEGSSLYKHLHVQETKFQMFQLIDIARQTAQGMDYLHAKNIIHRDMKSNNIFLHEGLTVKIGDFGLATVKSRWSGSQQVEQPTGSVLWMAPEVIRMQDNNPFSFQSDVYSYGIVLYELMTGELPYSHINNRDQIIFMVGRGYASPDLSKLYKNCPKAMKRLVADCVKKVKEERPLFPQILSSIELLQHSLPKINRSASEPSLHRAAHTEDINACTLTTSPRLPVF

Sequence of Proto-oncogene tyrosine-protein kinase Src (P12931 2-536 limits assumed): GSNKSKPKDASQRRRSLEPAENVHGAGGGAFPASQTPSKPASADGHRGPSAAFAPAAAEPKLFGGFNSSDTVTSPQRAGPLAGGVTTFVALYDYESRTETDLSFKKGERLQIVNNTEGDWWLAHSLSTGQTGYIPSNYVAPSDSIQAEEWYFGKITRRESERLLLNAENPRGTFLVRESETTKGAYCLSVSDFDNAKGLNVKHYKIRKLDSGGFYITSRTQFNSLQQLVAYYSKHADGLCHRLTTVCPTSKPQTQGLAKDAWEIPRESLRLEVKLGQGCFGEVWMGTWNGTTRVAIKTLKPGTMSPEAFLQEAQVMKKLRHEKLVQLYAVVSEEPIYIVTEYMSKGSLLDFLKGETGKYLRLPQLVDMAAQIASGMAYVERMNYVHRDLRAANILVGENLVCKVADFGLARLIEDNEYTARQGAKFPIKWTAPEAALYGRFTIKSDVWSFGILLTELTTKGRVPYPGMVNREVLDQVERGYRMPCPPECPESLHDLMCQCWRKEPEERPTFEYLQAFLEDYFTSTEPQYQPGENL

CCCS(=O)(=O)Nc1ccc(F)c(C(=O)c2c[nH]c3ncc(-c4cnn(C)c4)nc23)c1F
IC50 [1]: ≤ 10 µM
IC50 [2]: ≤ 10 µM

CCCS(=O)(=O)Nc1ccc(F)c(C(=O)c2c[nH]c3nccnc23)c1F
IC50 [3]: ≤ 10 µM
IC50 [4]: ≤ 10 µM
IC50 [5]: ≤ 10 µM

O=C(c1cccc(NS(=O)(=O)c2ccc(C(F)(F)F)cc2)c1F)c1c[nH]c2nccnc12
IC50 [3]: ≤ 10 µM
IC50 [4]: ≤ 10 µM
IC50 [5]: ≤ 10 µM

CCCS(=O)(=O)Nc1ccc(F)c(C(=O)c2c[nH]c3ncc(Br)nc23)c1F
IC50 [4]: ≤ 10 µM
IC50 [5]: ≤ 10 µM

O=C(c1c(F)ccc(NS(=O)(=O)c2ccc(C(F)(F)F)cc2)c1F)c1c[nH]c2nccnc12
IC50 [4]: ≤ 10 µM
IC50 [5]: ≤ 10 µM

CCCS(=O)(=O)Nc1ccc(F)c(C(=O)c2c[nH]c3ncc(C#N)nc23)c1F
IC50 [1]: ≤ 10 µM

CCCS(=O)(=O)Nc1ccc(F)c(C(=O)c2c[nH]c3ncc(-c4cnc(OC)nc4)nc23)c1F
IC50 [3]: ≤ 10 µM
IC50 [4]: ≤ 10 µM
IC50 [5]: ≤ 10 µM
